Results published in patent US9801738B2, “Liquid cast biodegradable arterial stent” (Northwestern University, priority 2010, dated 2017).

How the values were obtained:
[1] = cited from earlier work
neointimal hyperplasia = assay: rat carotid artery injury model, inhibition of neointimal hyperplasia by NO donors; type: in vivo
Method: Using the standard rat carotid artery injury model, the efficacy of two different diazeniumdiolates with markedly different half-lives at inhibiting neointimal hyperplasia were evaluated. […] The two different NO donors investigated were: 1-[2-(carboxylato)pyrrolidin-1-yl]diazen-1-ium-1,2-diolate (PROLI/NO), a short half-life donor, and diazeniumdiolated poly(acrylonitrile) (PAN/NO), a long half-life donor.
To date, it remains unknown how much NO is required in the vasculature to inhibit the subsequent neointimal hyperplasia from developing in humans. In order to estimate how much NO is required in the vasculature to inhibit the subsequent neointimal hyperplasia from developing in humans, the observed NO release may be compared to: 1) data from animal experiments, and 2) known endogenous NO production in humans. […] Because diazeniumdiolates release 2 moles of NO per mole of compound upon reaction with hydrogen ions, it follows that 20 mg of PROLI/NO releases 160 μmoles of NO. Thus, the current formulation that releases 112 μmole/gm (FIG. 10) is similar to what has been used in rat models. An alternative method of estimating whether the current NO-releasing material will produce sufficient NO is to compare the material against known rates of endogenous NO release. […]

| SMILES | half-life [1] [h] | inhibition of neointimal hyperplasia (neointimal hyperplasia; applied to the periadventitial aspect of an injured artery, 20 mg in rodents) [%] | inhibition of intimal area versus injury alone (neointimal hyperplasia; two weeks after injury, rat carotid artery injury model, p<0.05) [%] |
| --- | --- | --- | --- |
| NCCN(CCN)/[N+]([O-])=N/O [DETA/NO] | 20 |  |  |
| O=C(O)C1CCCN1[N+]([O-])=NO (stereo not drawn) [PROLI/NO, 1-[2-(carboxylato)pyrrolidin-1-yl]diazen-1-ium-1,2-diolate] |  | 91 | 91.2 |
